Key:
Experiment in all cases: NCI-60 anticancer screening (SRB)
Type in all cases: cell-based
IGROV1 = details: Homo sapiens, IGROV-1; IGROV1, ovarian cancer; one dose 10 μM; read-out: Growth Inhibition Percentage (GI %)
MALME-3M = details: Homo sapiens, melanoma, one dose 10 μM, read-out: Growth Inhibition Percentage (GI %)
HT29 = details: Homo sapiens, HT-29; HT29, colon cancer; one dose 10 μM; read-out: Growth Inhibition Percentage (GI %)
TK-10 = details: Homo sapiens; TK-10, renal cancer; one dose 10 μM; read-out: Growth Inhibition Percentage (GI %)
A498 = details: Homo sapiens; A498, renal cancer; one dose 10 μM; read-out: Growth Inhibition Percentage (GI %)
SN 12C = details: Homo sapiens, SN12C; SN 12C, renal cancer; one dose 10 μM; read-out: Growth Inhibition Percentage (GI %)
HOP-92 = details: Homo sapiens; HOP-92, NSC lung cancer; one dose 10 μM; read-out: Growth Inhibition Percentage (GI %)
CCRF-CEM = details: Homo sapiens, leukemia, one dose 10 μM, read-out: Growth Inhibition Percentage (GI %)
UACC-62 = details: Homo sapiens; UACC-62, melanoma; one dose 10 μM; read-out: Growth Inhibition Percentage (GI %)
HS 578T = details: Homo sapiens; HS 578T, breast cancer; one dose 10 μM; read-out: Growth Inhibition Percentage (GI %)
786-0 = details: Homo sapiens; 786-0, renal cancer; one dose 10 μM; read-out: Growth Inhibition Percentage (GI %)
BT-549 = details: Homo sapiens; BT-549, breast cancer; one dose 10 μM; read-out: Growth Inhibition Percentage (GI %)
NCI-H460 = details: Homo sapiens; NCI-H460, NSC lung cancer; one dose 10 μM; read-out: Growth Inhibition Percentage (GI %)
SK-MEL-28 = details: Homo sapiens; SK-MEL-28, melanoma; one dose 10 μM; read-out: Growth Inhibition Percentage (GI %)
SF-295 = details: Homo sapiens; SF-295, CNS cancer; one dose 10 μM; read-out: Growth Inhibition Percentage (GI %)
U251 = details: Homo sapiens, U-251; U251, CNS cancer; one dose 10 μM; read-out: Growth Inhibition Percentage (GI %)
DU-145 = details: Homo sapiens; DU-145, prostate cancer; one dose 10 μM; read-out: Growth Inhibition Percentage (GI %)
HCT-116 = details: Homo sapiens; HCT-116, colon cancer; one dose 10 μM; read-out: Growth Inhibition Percentage (GI %)
MCF7 = details: Homo sapiens; MCF7, breast cancer; one dose 10 μM; read-out: Growth Inhibition Percentage (GI %)
MDA-MB-231 = details: Homo sapiens; MDA-MB-231, breast cancer; one dose 10 μM; read-out: Growth Inhibition Percentage (GI %)
M14 = details: Homo sapiens; M14, melanoma; one dose 10 μM; read-out: Growth Inhibition Percentage (GI %)
COLO 205 = details: Homo sapiens; COLO 205, colon cancer; one dose 10 μM; read-out: Growth Inhibition Percentage (GI %)
EKVX = details: Homo sapiens, NSC lung cancer, one dose 10 μM, read-out: Growth Inhibition Percentage (GI %)
NCI/ADR-RES = details: Homo sapiens, ovarian cancer, one dose 10 μM, read-out: Growth Inhibition Percentage (GI %)
SF-539 = details: Homo sapiens; SF-539, CNS cancer; one dose 10 μM; read-out: Growth Inhibition Percentage (GI %)
CAKI-1 = details: Homo sapiens; CAKI-1, renal cancer; one dose 10 μM; read-out: Growth Inhibition Percentage (GI %)
PC-3 = details: Homo sapiens; PC-3, prostate cancer; one dose 10 μM; read-out: Growth Inhibition Percentage (GI %)
UO-31 = details: Homo sapiens; UO-31, renal cancer; one dose 10 μM; read-out: Growth Inhibition Percentage (GI %)

Compound	inhibition at 10 µM (IGROV1)	inhibition at 10 µM (MALME-3M)	inhibition at 10 µM (HT29)	inhibition at 10 µM (TK-10)	inhibition at 10 µM (A498)	inhibition at 10 µM (SN 12C)	inhibition at 10 µM (HOP-92)	inhibition at 10 µM (CCRF-CEM)	inhibition at 10 µM (UACC-62)	inhibition at 10 µM (HS 578T)	inhibition at 10 µM (786-0)	inhibition at 10 µM (BT-549)	inhibition at 10 µM (NCI-H460)	inhibition at 10 µM (SK-MEL-28)	inhibition at 10 µM (SF-295)	inhibition at 10 µM (U251)	inhibition at 10 µM (DU-145)	inhibition at 10 µM (HCT-116)	inhibition at 10 µM (MCF7)	inhibition at 10 µM (MDA-MB-231)	further results
CCOC(=O)C1=C(N)N(c2ccc(C)cc2)C2=C(C(=O)CC(C)(C)C2)C1c1ccc(Cl)cc1 (racemic) [8d, (±)-Ethyl 2-amino-4–(4-chlorophenyl)-7,7-dimethyl-1–(4-methylphenyl)-5-oxo-1,4,5,6,7,8-hexahydroquinoline-3-carboxylate]	< 10%	< 10%	33%	< 10%	< 10%	< 10%	< 10%	< 10%	24%	< 10%	< 10%	< 10%	21%	< 10%	< 10%	< 10%	< 10%	14%	35%	< 10%	inhibition at 10 µM (M14): < 10%; inhibition at 10 µM (COLO 205): 23%; inhibition at 10 µM (EKVX): 15%; inhibition at 10 µM (NCI/ADR-RES): < 10%; inhibition at 10 µM (SF-539): < 10%; inhibition at 10 µM (CAKI-1): 30%; inhibition at 10 µM (PC-3): 43%; inhibition at 10 µM (UO-31): 16%
CCOC(=O)C1=C(N)N(c2ccc(Cl)cc2)C2=C(C(=O)CC(C)(C)C2)C1c1ccc(N2CCOCC2)cc1 (racemic) [8m, (±)-Ethyl 2-amino-1–(4-chlorophenyl)-7,7-dimethyl-4-[4-(morpholin-4-yl)phenyl]-5-oxo-1,4,5,6,7,8-hexahydroquinoline-3-carboxylate]	< 10%	< 10%	< 10%	< 10%	< 10%	< 10%	< 10%	< 10%	17%	< 10%	11%	76%	< 10%	< 10%	11%	12%	< 10%	< 10%	< 10%	13%	inhibition at 10 µM (M14): < 10%; inhibition at 10 µM (COLO 205): < 10%; inhibition at 10 µM (EKVX): 25%; inhibition at 10 µM (NCI/ADR-RES): < 10%; inhibition at 10 µM (SF-539): < 10%; inhibition at 10 µM (CAKI-1): 13%; inhibition at 10 µM (PC-3): < 10%; inhibition at 10 µM (UO-31): 15%
CCOC(=O)C1=C(N)N(c2ccccc2)C2=C(C(=O)CC(C)(C)C2)C1c1ccccn1 (racemic) [12a, (±)-Ethyl 2-amino-7,7-dimethyl-5-oxo-1-phenyl-4-(pyridin-2-yl)-1,4,5,6,7,8-hexahydroquinoline-3-carboxylate]	< 10%	< 10%	< 10%	< 10%	< 10%	< 10%	< 10%	< 10%	< 10%	< 10%	< 10%	< 10%	< 10%	< 10%	< 10%	< 10%	< 10%	< 10%	< 10%	< 10%	inhibition at 10 µM (M14): < 10%; inhibition at 10 µM (COLO 205): < 10%; inhibition at 10 µM (EKVX): < 10%; inhibition at 10 µM (NCI/ADR-RES): < 10%; inhibition at 10 µM (SF-539): < 10%; inhibition at 10 µM (CAKI-1): < 10%; inhibition at 10 µM (PC-3): < 10%; inhibition at 10 µM (UO-31): < 10%
CCOC(=O)C1=C(N)N(c2ccc(C)cc2)C2=C(C(=O)CC(C)(C)C2)C1c1ccc([N+](=O)[O-])cc1 (racemic) [8j, (±)-Ethyl 2-amino-7,7-dimethyl-1–(4-methylphenyl)-4–(4-nitrophenyl)-5-oxo-1,4,5,6,7,8-hexahydroquinoline-3-carboxylate]	< 10%	< 10%	< 10%	< 10%	< 10%	< 10%	< 10%	< 10%	13%	< 10%	< 10%	< 10%	< 10%	< 10%	< 10%	< 10%	< 10%	< 10%	< 10%	< 10%	inhibition at 10 µM (M14): < 10%; inhibition at 10 µM (COLO 205): < 10%; inhibition at 10 µM (EKVX): < 10%; inhibition at 10 µM (NCI/ADR-RES): < 10%; inhibition at 10 µM (CAKI-1): < 10%; inhibition at 10 µM (PC-3): < 10%; inhibition at 10 µM (UO-31): < 10%

Reference: PMC10408569, “Recruitment of hexahydroquinoline as anticancer scaffold targeting inhibition of wild and mutants EGFR (EGFR^WT, EGFR^T790M, and EGFR^L858R)” (Journal of Enzyme Inhibition and Medicinal Chemistry, 2023)
